Measured values from ChEMBL document CHEMBL1201862, “PubChem BioAssay data set” (2004).
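1) Cells in 96-well plates. 2) Compound, 48 h, 5 concentrations. 3) Linear interpolation between surrounding doses. 4) Unreached endpoint = highest concentration. Here, GI50 denotes the concentration required for 50% inhibition of growth.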 Active and inactive are the calls of the source. Cut-off read from the data, not from the text of the source: active = GI50 up to about 1.1 µM and inactive = higher.

What was measured:
Assay in all cases: growth of human tumour cells (NCI), 48 h
CAKI-1 = system: CAKI-1
HL-60 = system: HL-60
HOP-62 = system: HOP-62
HT-29 = system: HT-29
IGROV-1 = system: IGROV-1
K562 = system: K562
M14 = system: M14
Malme-3M = system: Malme-3M
NCI-H23 = system: NCI-H23
NCI-H522 = system: NCI-H522
OVCAR-4 = system: OVCAR-4
RPMI-8226 = system: RPMI-8226
SF-295 = system: SF-295
SF-539 = system: SF-539
SK-OV-3 = system: SK-OV-3
SN12C = system: SN12C
SNB-19 = system: SNB-19
SNB-75 = system: SNB-75
UO-31 = system: UO-31
BT-549 = system: BT-549

Row | SMILES | GI50 (CAKI-1) | GI50 (HL-60) | GI50 (HOP-62) | GI50 (HT-29) | GI50 (IGROV-1) | GI50 (K562) | GI50 (M14) | GI50 (Malme-3M) | GI50 (NCI-H23) | GI50 (NCI-H522) | GI50 (OVCAR-4) | GI50 (RPMI-8226) | GI50 (SF-295) | GI50 (SF-539) | GI50 (SK-OV-3) | GI50 (SN12C) | GI50 (SNB-19) | GI50 (SNB-75) | GI50 (UO-31) | GI50 (BT-549)
1 | O=C(c1ccco1)N(C(=S)N1CCN(c2ccccn2)CC1)c1ccccc1 | > 100 µM (inactive) | > 100 µM (inactive) | > 100 µM (inactive) | > 100 µM (inactive) | > 100 µM (inactive) | > 100 µM (inactive) | > 100 µM (inactive) | > 100 µM (inactive) | > 100 µM (inactive) | > 100 µM (inactive) | > 100 µM (inactive) | > 100 µM (inactive) | > 100 µM (inactive) | > 100 µM (inactive) | > 100 µM (inactive) | > 100 µM (inactive) | > 100 µM (inactive) | > 100 µM (inactive) | 88.7 µM (inactive) | 
2 | COc1c2c3c4c(c(OC)c(=O)c5c(O)cc(OC)c(c6c(OC)cc(O)c(c1=O)c63)c54)C(C(C)O)C2C(C)=O (stereo not given) | 0.279 µM (active) | 0.334 µM (active) | 0.177 µM (active) | 0.47 µM (active) | 0.445 µM (active) | 0.234 µM (active) | 0.288 µM (active) | 0.448 µM (active) | 0.331 µM (active) | 0.171 µM (active) | 0.46 µM (active) | 0.513 µM (active) | 0.256 µM (active) | 0.296 µM (active) | 0.826 µM (active) | 0.485 µM (active) | 0.264 µM (active) | 0.256 µM (active) | 0.325 µM (active) | 
3 | CC12CCCCC1(C)C2Sc1ccccc1 (stereo not given) | > 56.1 µM (inactive) | 17.5 µM (inactive) | > 100 µM (inactive) | 37.2 µM (inactive) | > 81.7 µM (inactive) | 13.5 µM (inactive) | 88.5 µM (inactive) | 63 µM (inactive) | 52.6 µM (inactive) | 28.9 µM (inactive) | > 73.3 µM (inactive) | 18.4 µM (inactive) | 35.6 µM (inactive) | > 100 µM (inactive) | > 100 µM (inactive) | 64.3 µM (inactive) | 38.5 µM (inactive) | 70.8 µM (inactive) | 57.9 µM (inactive) | 
4 | O=C1CC(CC(O)C(O)CO)CC(=O)N1 (stereo not given) | > 100 µM (inactive) | > 100 µM (inactive) | > 100 µM (inactive) | > 100 µM (inactive) | > 100 µM (inactive) | > 100 µM (inactive) | > 100 µM (inactive) | > 100 µM (inactive) | > 100 µM (inactive) | > 100 µM (inactive) |  | > 100 µM (inactive) | > 100 µM (inactive) | > 100 µM (inactive) |  | > 100 µM (inactive) | > 100 µM (inactive) |  | > 100 µM (inactive) | > 100 µM (inactive)
5 | CC1=C(C(=O)Nc2c(C)cccc2C)C(c2ccccc2Cl)C(C(=O)Nc2c(C)cccc2C)=C(C)N1 | > 100 µM (inactive) | > 100 µM (inactive) | > 100 µM (inactive) | > 100 µM (inactive) | > 100 µM (inactive) | > 100 µM (inactive) | > 100 µM (inactive) | > 100 µM (inactive) | > 100 µM (inactive) | > 100 µM (inactive) | > 100 µM (inactive) | > 100 µM (inactive) | > 100 µM (inactive) | > 100 µM (inactive) | > 100 µM (inactive) | > 100 µM (inactive) | > 100 µM (inactive) | 94.8 µM (inactive) | > 100 µM (inactive) | 
6 | CCOc1ccccc1NC(=O)C1=C(C)NC(C)=C(C(=O)Nc2ccccc2OCC)C1c1ccc([N+](=O)[O-])cc1 | > 100 µM (inactive) | 34.7 µM (inactive) | > 100 µM (inactive) | 75.5 µM (inactive) | 45.2 µM (inactive) |  | 89.5 µM (inactive) | > 100 µM (inactive) | 44 µM (inactive) | > 100 µM (inactive) | 68.9 µM (inactive) | 10 µM (inactive) | 21.3 µM (inactive) | > 100 µM (inactive) | > 100 µM (inactive) | > 100 µM (inactive) | > 100 µM (inactive) | 53.1 µM (inactive) | 32.7 µM (inactive) | 
7 | COc1c(OC(C)=O)ccc(/C=C2\N=C(C)OC2=O)c1[N+](=O)[O-] | > 100 µM (inactive) | > 100 µM (inactive) | > 100 µM (inactive) | > 100 µM (inactive) | > 100 µM (inactive) | > 100 µM (inactive) | > 100 µM (inactive) | > 100 µM (inactive) |  | > 100 µM (inactive) | > 100 µM (inactive) | > 100 µM (inactive) | > 100 µM (inactive) | > 100 µM (inactive) | > 100 µM (inactive) | > 100 µM (inactive) | > 100 µM (inactive) | 91.6 µM (inactive) | > 100 µM (inactive) | 
8 | C1=C\SS/C=C\SS/1 | > 10 µM (inactive) | 7.57 µM (inactive) | 54.6 µM (inactive) | 15.6 µM (inactive) | 16.6 µM (inactive) | 26.1 µM (inactive) | 29.5 µM (inactive) |  | 40.9 µM (inactive) |  | 46.8 µM (inactive) | 28.9 µM (inactive) | 58.1 µM (inactive) |  | > 100 µM (inactive) | 61.9 µM (inactive) | 32.3 µM (inactive) |  | 22.2 µM (inactive) | 97.1 µM (inactive)
9 | C[C@H](OCc1ccccc1)C(=O)N1CCS(=O)(=O)N2CCC[C@@H]2C1=O | > 100 µM (inactive) | > 100 µM (inactive) | > 100 µM (inactive) | > 100 µM (inactive) | > 100 µM (inactive) | > 100 µM (inactive) | > 100 µM (inactive) | > 100 µM (inactive) | > 100 µM (inactive) | > 100 µM (inactive) | > 100 µM (inactive) | > 100 µM (inactive) | > 100 µM (inactive) | > 100 µM (inactive) | > 100 µM (inactive) | > 100 µM (inactive) | > 100 µM (inactive) | > 100 µM (inactive) | > 100 µM (inactive) | 
10 | CCC(C(=O)O)c1ccc(OCc2ccccc2)cc1 (stereo not given) | > 100 µM (inactive) | > 100 µM (inactive) | > 100 µM (inactive) | > 100 µM (inactive) | > 100 µM (inactive) | > 100 µM (inactive) | > 100 µM (inactive) | > 100 µM (inactive) | > 100 µM (inactive) | > 100 µM (inactive) | > 100 µM (inactive) | > 100 µM (inactive) | > 100 µM (inactive) | > 100 µM (inactive) | > 100 µM (inactive) | > 100 µM (inactive) | > 100 µM (inactive) | 70 µM (inactive) | 21.5 µM (inactive) | 
11 | Cc1ccc(NC(=O)C(=O)CC(=O)c2c(C)[n+]([O-])c3ccccc3[n+]2[O-])cc1C | > 100 µM (inactive) | > 100 µM (inactive) | > 100 µM (inactive) | > 100 µM (inactive) | > 100 µM (inactive) | > 100 µM (inactive) | 74.8 µM (inactive) | > 100 µM (inactive) | > 100 µM (inactive) | 66.2 µM (inactive) | > 100 µM (inactive) | > 100 µM (inactive) | > 100 µM (inactive) | > 100 µM (inactive) | > 100 µM (inactive) | > 100 µM (inactive) | 47.3 µM (inactive) | > 100 µM (inactive) | > 100 µM (inactive) | 
12 | Cc1cc2ncn(-c3nc4ccccc4nc3C(C#N)S(C)(=O)=O)c2cc1C (stereo not given) | > 100 µM (inactive) | > 100 µM (inactive) | > 100 µM (inactive) |  | > 100 µM (inactive) | > 100 µM (inactive) | > 100 µM (inactive) | > 100 µM (inactive) | > 100 µM (inactive) | > 100 µM (inactive) | > 100 µM (inactive) | > 100 µM (inactive) |  | > 100 µM (inactive) | 0.946 µM (active) | > 100 µM (inactive) | > 100 µM (inactive) | > 100 µM (inactive) | > 100 µM (inactive) | 
13 | Nc1nc(Cl)cc(NCC2(CO)CC(=O)C2)n1 | > 100 µM (inactive) | > 100 µM (inactive) | > 100 µM (inactive) | > 100 µM (inactive) | > 100 µM (inactive) | > 100 µM (inactive) |  | > 100 µM (inactive) | > 100 µM (inactive) | > 100 µM (inactive) | > 100 µM (inactive) | > 100 µM (inactive) | > 100 µM (inactive) | > 100 µM (inactive) | > 100 µM (inactive) | > 100 µM (inactive) | > 100 µM (inactive) |  | > 100 µM (inactive) | > 100 µM (inactive)
14 | COc1ccc2[nH]c(=O)cc(C)c2c1[N+](=O)[O-] | 31.7 µM (inactive) | > 100 µM (inactive) | > 100 µM (inactive) | > 100 µM (inactive) | > 100 µM (inactive) | > 100 µM (inactive) | > 100 µM (inactive) | > 100 µM (inactive) | > 100 µM (inactive) | 47.4 µM (inactive) | > 100 µM (inactive) | > 100 µM (inactive) | > 100 µM (inactive) | > 100 µM (inactive) | > 100 µM (inactive) | > 100 µM (inactive) | > 100 µM (inactive) | 10.5 µM (inactive) | 18.3 µM (inactive) | 
15 | O=C1c2cccc(NCCCNCCO)c2C(=O)c2cccc(NCCCNCCO)c21 |  | 1.27 µM (inactive) | 1.96 µM (inactive) | 2.02 µM (inactive) | 2.81 µM (inactive) |  | 3.61 µM (inactive) |  | 1.81 µM (inactive) | 0.373 µM (active) |  | 2.44 µM (inactive) |  | 1.49 µM (inactive) | 2.25 µM (inactive) | 0.935 µM (active) | 1.15 µM (inactive) |  | 9.59 µM (inactive) | 2.05 µM (inactive)
